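96-well plates; 48 h exposure; 5 concentrations. Endpoints by linear interpolation between flanking doses. Not reached: highest tested concentration assigned. Abbreviation: GI50, concentration required for 50% inhibition of growth. Definition used: TGI = concentration required for complete inhibition of growth.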
Experiments:
Test in all cases: inhibition of tumour cell growth, NCI panel, 48 h
TK-10 renal = test system: TK-10 renal
SK-OV-3 ovarian = test system: SK-OV-3 ovarian
COLO 205 colon = test system: COLO 205 colon
DU-145 prostate = test system: DU-145 prostate
NCI-H23 lung = test system: NCI-H23 lung
K-562 leukemia = test system: K-562 leukemia
HOP-62 NSCLC = test system: HOP-62 NSCLC
U251 CNS = test system: U251 CNS
UACC-257 melanoma = test system: UACC-257 melanoma
LOX IMVI melanoma = test system: LOX IMVI melanoma

SMILES	GI50 (TK-10 renal) [µM]	TGI (TK-10 renal) [µM]	GI50 (SK-OV-3 ovarian) [µM]	TGI (SK-OV-3 ovarian) [µM]	GI50 (COLO 205 colon) [µM]	TGI (COLO 205 colon) [µM]	GI50 (DU-145 prostate) [µM]	TGI (DU-145 prostate) [µM]	GI50 (NCI-H23 lung) [µM]	TGI (NCI-H23 lung) [µM]	GI50 (K-562 leukemia) [µM]	TGI (K-562 leukemia) [µM]	GI50 (HOP-62 NSCLC) [µM]	TGI (HOP-62 NSCLC) [µM]	GI50 (U251 CNS) [µM]	TGI (U251 CNS) [µM]	GI50 (UACC-257 melanoma) [µM]	TGI (UACC-257 melanoma) [µM]	GI50 (LOX IMVI melanoma) [µM]	TGI (LOX IMVI melanoma) [µM]
CC(C)(C)c1ccc([I+]c2ccc(C(C)(C)C)cc2)cc1	2.62	9.75	2.31	6.75	1.06	2.8	1.7	3.53	1.69	7.57	0.55	2.46	1.83	3.71	1.47	3.59	0.595	2.54	1.31	2.74
Nc1cc(-c2ccccc2)ccc1O	> 100	> 100	> 100	> 100	> 100	> 100	82.3	> 100	> 100	> 100	> 100	> 100	> 100	> 100	> 100	> 100	> 100	> 100	62.9	> 100
N#Cc1ccccc1C#C/C=C\C#Cc1ccc(OCCCNC(=O)c2cc3ccccc3[nH]2)cc1	15.7	34	19.3	54.5	15.9	44.6	19.4	78.9	24.2	98.2	3.2	19	14.9	31.1	10.7	22.5	23	> 100	11.5	23.7
O=C1Nc2ccccc2C1Cc1ccccc1 (centres undefined)	–	> 100	–	> 100	–	> 100	–	> 100	–	> 100	–	> 100	–	> 100	–	> 100	–	> 100	–	> 100
COCCOC(=O)C1=C(C)NC2=C(C(=O)CC(c3ccccc3OC)C2)C1c1cccc(O)c1 (centres undefined)	4.26	30.7	7.77	32.5	8.55	24.8	23.5	> 91.9	14.7	56.6	7.97	> 85.4	5.84	44.3	16.3	> 72.2	8.8	61.1	9.04	30.4
CN1C(=O)CNC(=O)[C@H](NC(=O)c2nc3ccccc3cc2O)CSSC[C@H]1C(=O)NCCc1nc2ccccc2cc1O	20.5	47.3	> 100	> 100	2.94	12.7	5.19	23.2	13.6	60.9	1.57	13.9	17.6	53.4	16.5	43	17.1	72.9	0.442	6.77
CCN(CC)c1ccc2c(c1)Oc1nc(N)c(C#N)c(N)c1C2Sc1ccc(SC)cc1 (centres undefined)	2.59	4.1	2.16	3.96	1.84	3.55	1.82	3.21	1.58	3.16	2.33	5.69	1.76	3.26	1.35	2.7	3.23	6.22	1.39	2.75
CC(=O)OC1COC(S[As](C)C)C(OC(C)=O)C1OC(C)=O (centres undefined)	0.08	0.832	1.81	17.3	0.575	4.96	0.0701	0.902	0.322	4.53	0.0176	0.0913	2.29	14.9	0.639	5.24	2.61	–	0.223	0.691
CCN(CC)CCOc1ccc(/C=C2\CC3C4CCC5=CC(=O)CC[C@]5(C)C4CC[C@]3(C)C2=O)cc1OC (some centres undefined)	2.45	5.59	2.66	8.46	1.75	4.61	3.26	16.4	3.17	11	3.14	> 100	2.5	6.37	2.57	8.39	3.43	11.1	1.89	4.43
O=C1c2ccccc2C(=O)N1c1ccc(S(=O)(=O)Nc2ncccn2)cc1	> 100	> 100	> 100	> 100	> 100	> 100	> 100	> 100	> 100	> 100	> 100	> 100	> 100	> 100	> 100	> 100	> 100	> 100	> 100	> 100
CCc1c2c(nc3cc4c(cc13)OCO4)-c1cc3c(c(=O)n1C2)COC(=O)[C@@]3(CC)OC(=O)CN	0.178	20	< 0.01	< 0.0185	0.133	1.13	< 0.01	0.0426	< 0.01	< 0.0158	< 0.01	5.65	< 0.01	< 0.01	< 0.01	0.124	< 0.0154	0.286	< 0.01	0.0902
